Measured values: patent US8969554B2, “6-acyl-1,2,4-triazine-3,5-dione derivative and herbicides” (Kumiai Chemical Industry Co., Ltd., priority 2010, dated 2015)

Key:
Type in all cases: in vivo
Set-up in all cases: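 index 0 to 10 in 10% steps of herbicidal effect with 10 meaning complete death and 0 below 10%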
Indian millet [1] = assay: Herbicidal activity by field foliage treatment (Test example 3); conditions: 1000 g effective component per hectare, day 14 after the treatment
Experimental: (§1) [table] Test for Determining Herbicidal Activity by Field Foliage Treatment A 80 cm^2 wide plastic pot was filled with a field soil and seeds of each of Indian millet and A. retroflexus were sowed and then incubated for 2 weeks in a green house. The wettable powder produced with reference to the Formulation example 1 was diluted water, and applied from the air to entire body of the plant as foliage treatment by using a small sprayer in an amount of 1000 liters per hectare so that the effective component is 1000 g per hectare. After that, the plants were cultivated in a greenhouse, and on day 14 after the treatment, evaluation was made by the criteria described in Table 72 for determining the herbicidal effects.

Monochoria vaginalis = assay: Herbicidal activity by paddy field soil treatment (Test Example 1); conditions: 1000 g of effective component per hectare, evaluated on day 21 after the treatment, criteria of Table 72
Experimental: (§2) Test for Determining Herbicidal Activity by Paddy Field Soil Treatment A 100 cm^2 wide plastic pot was filled with a paddy field soil and, after watering and shuffling, seeds of each of Echinochloa oryzicola, Monochoria vaginalis, and Scirpus juncoides Rocxb. were sowed and watered to a depth of 3 cm. On the next day, the wettable powder obtained in view of Formulation example 1 was diluted with water and applied on water surface. The application amount was 1000 g of effective component per hectare. After that, the plants were cultivated in a greenhouse, and on day 21 after the treatment, evaluation was made by the criteria of Table 72 for determining the herbicidal effects. [table]

A. retroflexus [2] = assay: Herbicidal activity by field soil treatment (Test example 2); conditions: 1000 g effective component per hectare, day 21 after the treatment
Experimental: (§3) [table] Test for Determining Herbicidal Activity by Field Soil Treatment A 80 cm^2 wide plastic pot was filled with a field soil and seeds of each of Echinochloa crus-galli, foxtail, Indian millet, and A. retroflexus were sowed and then covered with soil. The wettable powder produced with reference to the Formulation example 1 was diluted water, and applied on the soil surface by using a small sprayer in an amount of 1000 liters per hectare so that the effective component is 1000 g per hectare. After that, the plants were cultivated in a greenhouse, and on day 21 after the treatment, evaluation was made by the criteria described in Table 72 for determining the herbicidal effects.

A. retroflexus [3] = assay: Herbicidal activity by field foliage treatment (Test example 3); conditions: 1000 g effective component per hectare, day 14 after the treatment
Experimental: as §1

Scirpus juncoides Rocxb. = assay: Herbicidal activity by paddy field soil treatment (Test Example 1); conditions: applied on water surface, 1000 g of effective component per hectare, day 21 after the treatment
Experimental: as §2

Indian millet [4] = assay: Herbicidal activity by field soil treatment (Test example 2); conditions: 1000 g effective component per hectare, day 21 after the treatment
Experimental: as §3

Echinochloa crus-galli = assay: Herbicidal activity by field foliage treatment (Test example 3); conditions: 1000 g effective component per hectare, day 14 after the treatment
Experimental: as §1, with “Test example 3” for “[table]”

Echinochloa oryzicola = assay: Herbicidal activity by paddy field soil treatment (Test Example 1); conditions: 1000 g of effective component per hectare, evaluated on day 21 after the treatment, criteria of Table 72
Experimental: as §2

CCCCCn1nc(C(=O)C2=C(O)CCCC2=O)c(=O)n(-c2ccccc2)c1=O [I-308]
herbicidal effect index, Abutilon theophrasti (Indian millet [1]): 8
Herbicidal effects index number, Monochoria vaginalis (Monochoria vaginalis): 8
herbicidal effect index, Amaranthus retroflexus (A. retroflexus [2]): 10

Cc1cc(C)c(-n2c(=O)c(C(=O)C3=C(O)CCCC3=O)nn(C)c2=O)c(C)c1 [I-472]
herbicidal effect index, Amaranthus retroflexus (A. retroflexus [3]): 10
herbicidal effect index, Abutilon theophrasti (Indian millet [1]): 7
herbicidal effect index, S. juncoides Rocxb. (Scirpus juncoides Rocxb.): 8
Herbicidal effects index number, Monochoria vaginalis (Monochoria vaginalis): 10

C=Cc1ccc(-n2c(=O)c(C(=O)C3=C(O)CCCC3=O)nn(C)c2=O)nc1 [I-293]
herbicidal effect index, Amaranthus retroflexus (A. retroflexus [3]): 10
herbicidal effect index, Abutilon theophrasti (Indian millet [1]): 8
herbicidal effect index, S. juncoides Rocxb. (Scirpus juncoides Rocxb.): 10
Herbicidal effects index number, Monochoria vaginalis (Monochoria vaginalis): 10
herbicidal effect index, Abutilon theophrasti (Indian millet [4]): 10

CCCCn1c(=O)c(C(=O)C2=C(O)CCCC2=O)nn(-c2ccccn2)c1=O [I-306]
herbicidal effect index, Amaranthus retroflexus (A. retroflexus [3]): 7
herbicidal effect index, Abutilon theophrasti (Indian millet [1]): 9
Herbicidal effects index number, Monochoria vaginalis (Monochoria vaginalis): 9
herbicidal effect index, Amaranthus retroflexus (A. retroflexus [2]): 10
herbicidal effect index, Abutilon theophrasti (Indian millet [4]): 7

Cn1nc(C(F)(F)F)cc1-n1c(=O)c(C(=O)C2=C(O)CCCC2=O)nn(C)c1=O [I-272]
herbicidal effect index, Echinochloa crus-galli (Echinochloa crus-galli): 6
herbicidal effect index, Amaranthus retroflexus (A. retroflexus [3]): 10
herbicidal effect index, Abutilon theophrasti (Indian millet [1]): 9
herbicidal effect index, S. juncoides Rocxb. (Scirpus juncoides Rocxb.): 8
Herbicidal effects index number, Monochoria vaginalis (Monochoria vaginalis): 8
Herbicidal effects index number, Echinochloa oryzicola (Echinochloa oryzicola): 7
herbicidal effect index, Amaranthus retroflexus (A. retroflexus [2]): 8

CCCCCCCCn1c(=O)c(C(=O)C2=C(O)CCCC2=O)nn(C)c1=O [I-295]
herbicidal effect index, Amaranthus retroflexus (A. retroflexus [3]): 8
herbicidal effect index, Abutilon theophrasti (Indian millet [1]): 9

CCCS(=O)(=O)Oc1c(C(=O)c2nn(C)c(=O)n(-c3ccccc3)c2=O)cnn1C(C)C [II-267, 1-isopropyl-4-(2-methyl-3,5-dioxo-4-phenyl-2,3,4,5-tetrahydro-1,2,4-triazine-6-ylcarbonyl)-1H-pyrazole-5-yl propane-1-sulfonate]
herbicidal effect index, Abutilon theophrasti (Indian millet [1]): 9
Herbicidal effects index number, Monochoria vaginalis (Monochoria vaginalis): 8

Cn1nc(C(=O)C2=C(O)CCCC2=O)c(=O)n(Cc2ccccc2)c1=O [I-205]
herbicidal effect index, Amaranthus retroflexus (A. retroflexus [3]): 10
herbicidal effect index, Abutilon theophrasti (Indian millet [1]): 10
herbicidal effect index, S. juncoides Rocxb. (Scirpus juncoides Rocxb.): 10
Herbicidal effects index number, Monochoria vaginalis (Monochoria vaginalis): 10
Herbicidal effects index number, Echinochloa oryzicola (Echinochloa oryzicola): 7

COc1ccc(-n2c(=O)c(C(=O)C3=C(O)CCCC3=O)nn(C)c2=O)cc1 [Compound I-62]
herbicidal effect index, Amaranthus retroflexus (A. retroflexus [3]): 10
herbicidal effect index, Abutilon theophrasti (Indian millet [1]): 9
Herbicidal effects index number, Monochoria vaginalis (Monochoria vaginalis): 8

Cc1ccc(-n2c(=O)c(C(=O)C3=C(O)CCCC3=O)nn(C)c2=S)nc1 [I-291]
herbicidal effect index, Amaranthus retroflexus (A. retroflexus [3]): 10
herbicidal effect index, Abutilon theophrasti (Indian millet [1]): 9
herbicidal effect index, S. juncoides Rocxb. (Scirpus juncoides Rocxb.): 10
Herbicidal effects index number, Monochoria vaginalis (Monochoria vaginalis): 10
herbicidal effect index, Amaranthus retroflexus (A. retroflexus [2]): 8
herbicidal effect index, Abutilon theophrasti (Indian millet [4]): 10

Cn1nc(C(=O)C2=C(O)CCCC2=O)c(=O)n(N2CCS(=O)(=O)CC2)c1=O [I-204]
herbicidal effect index, Amaranthus retroflexus (A. retroflexus [3]): 7
Herbicidal effects index number, Monochoria vaginalis (Monochoria vaginalis): 8

COc1cccc(-n2c(=O)c(C(=O)O)nn(C)c2=O)c1 [V-61]
herbicidal effect index, Abutilon theophrasti (Indian millet [4]): 8

Cn1nc(C(=O)O)c(=O)n(-c2c(F)c(F)c(F)c(F)c2F)c1=O [V-367]
herbicidal effect index, Abutilon theophrasti (Indian millet [1]): 10
herbicidal effect index, S. juncoides Rocxb. (Scirpus juncoides Rocxb.): 8
Herbicidal effects index number, Monochoria vaginalis (Monochoria vaginalis): 10
Herbicidal effects index number, Echinochloa oryzicola (Echinochloa oryzicola): 8

Cc1cc(C)c(-n2c(=O)c(C(=O)O)nn(C)c2=O)c(C)c1 [V-366]
herbicidal effect index, Amaranthus retroflexus (A. retroflexus [3]): 10
herbicidal effect index, Abutilon theophrasti (Indian millet [1]): 7
herbicidal effect index, S. juncoides Rocxb. (Scirpus juncoides Rocxb.): 8
Herbicidal effects index number, Monochoria vaginalis (Monochoria vaginalis): 10

Cn1ncc(C(=O)c2nn(C)c(=O)n(-c3ccccc3)c2=O)c1O [II-50, 6-(5-hydroxy-1-methyl-1H-pyrazole-4-carbonyl)-2-methyl-4-phenyl-1,2,4-triazine-3,5 (2H, 4H)-dione]
herbicidal effect index, Amaranthus retroflexus (A. retroflexus [3]): 10
herbicidal effect index, Abutilon theophrasti (Indian millet [1]): 8
herbicidal effect index, S. juncoides Rocxb. (Scirpus juncoides Rocxb.): 7
Herbicidal effects index number, Monochoria vaginalis (Monochoria vaginalis): 8

Cn1nc(C(=O)C2=C(O)CCCC2=O)c(=O)n(-c2c(F)c(F)c(F)c(F)c2F)c1=O [I-473]
herbicidal effect index, Amaranthus retroflexus (A. retroflexus [3]): 3
herbicidal effect index, Abutilon theophrasti (Indian millet [1]): 10
herbicidal effect index, S. juncoides Rocxb. (Scirpus juncoides Rocxb.): 8
Herbicidal effects index number, Monochoria vaginalis (Monochoria vaginalis): 10
Herbicidal effects index number, Echinochloa oryzicola (Echinochloa oryzicola): 8

Cc1cc(C)nc(-n2c(=O)c(C(=O)O)nn(C)c2=O)n1 [V-360]
herbicidal effect index, Echinochloa crus-galli (Echinochloa crus-galli): 8
herbicidal effect index, Amaranthus retroflexus (A. retroflexus [3]): 10
herbicidal effect index, Abutilon theophrasti (Indian millet [1]): 7
herbicidal effect index, S. juncoides Rocxb. (Scirpus juncoides Rocxb.): 10
Herbicidal effects index number, Monochoria vaginalis (Monochoria vaginalis): 10

CN(c1ccccc1)n1c(=O)c(C(=O)O)nn(C)c1=O [V-359]
herbicidal effect index, Amaranthus retroflexus (A. retroflexus [3]): 10
herbicidal effect index, Abutilon theophrasti (Indian millet [1]): 10
herbicidal effect index, S. juncoides Rocxb. (Scirpus juncoides Rocxb.): 10
Herbicidal effects index number, Monochoria vaginalis (Monochoria vaginalis): 10
Herbicidal effects index number, Echinochloa oryzicola (Echinochloa oryzicola): 8

CN(c1ccccc1)n1c(=O)c(C(=O)C2=C(O)CCCC2=O)nn(C)c1=O [I-466]
herbicidal effect index, Amaranthus retroflexus (A. retroflexus [3]): 10
herbicidal effect index, Abutilon theophrasti (Indian millet [1]): 10
herbicidal effect index, S. juncoides Rocxb. (Scirpus juncoides Rocxb.): 10
Herbicidal effects index number, Monochoria vaginalis (Monochoria vaginalis): 10
Herbicidal effects index number, Echinochloa oryzicola (Echinochloa oryzicola): 8

Cn1nc(C(=O)C2=C(O)CCCC2=O)c(=O)n(CS(C)(=O)=O)c1=O [Compound I-47]
herbicidal effect index, Amaranthus retroflexus (A. retroflexus [3]): 10
herbicidal effect index, Abutilon theophrasti (Indian millet [1]): 9
herbicidal effect index, S. juncoides Rocxb. (Scirpus juncoides Rocxb.): 10
Herbicidal effects index number, Monochoria vaginalis (Monochoria vaginalis): 10
herbicidal effect index, Amaranthus retroflexus (A. retroflexus [2]): 10

Cc1ccc(-n2c(=O)c(C(=O)O)nn(C)c2=S)nc1 [V-291]
Herbicidal effects index number, Monochoria vaginalis (Monochoria vaginalis): 8

Cn1nc(C(=O)C2=C(O)CCCC2=O)c(=O)n(-c2cc(Cl)c(S(C)(=O)=O)c(Cl)c2)c1=O [I-301]
herbicidal effect index, Amaranthus retroflexus (A. retroflexus [3]): 10
herbicidal effect index, Abutilon theophrasti (Indian millet [1]): 7
herbicidal effect index, S. juncoides Rocxb. (Scirpus juncoides Rocxb.): 10
Herbicidal effects index number, Monochoria vaginalis (Monochoria vaginalis): 10
Herbicidal effects index number, Echinochloa oryzicola (Echinochloa oryzicola): 10

Cc1cc(C)nc(-n2c(=O)c(C(=O)C3=C(O)CCCC3=O)nn(C)c2=O)n1 [I-467]
herbicidal effect index, Echinochloa crus-galli (Echinochloa crus-galli): 8
herbicidal effect index, Amaranthus retroflexus (A. retroflexus [3]): 10
herbicidal effect index, Abutilon theophrasti (Indian millet [1]): 7
herbicidal effect index, S. juncoides Rocxb. (Scirpus juncoides Rocxb.): 10
Herbicidal effects index number, Monochoria vaginalis (Monochoria vaginalis): 10

O=C1CCCC(O)=C1C(=O)c1nn(-c2ccccc2)c(=O)n(-c2ccccc2)c1=O [I-262]
Herbicidal effects index number, Monochoria vaginalis (Monochoria vaginalis): 8
